Test results as given in patent US9108963B2, “Pyrazolopyridine, pyrazolopyrazine, pyrazolopyrimidine, pyrazolothiophene and pyrazolothiazole compounds as MGLUR4 allosteric potentiators, compositions, and methods of treating neurological dysfunction” (Vanderbilt University, priority 2010, dated 2015).

What was measured:
mGluR4 = mGluR4 (UniProt Q14833); experiment: mGluR4 potentiation assay (Ca2+ or thallium flux fluorescence, agonist EC20); type: cell-based, human or rat; conditions: Table 3; read-out: mGlu4 EC50
Protocol: The disclosed compounds and compositions can be evaluated for their ability to act as a potentiator of metabotropic glutamate receptor activity, in particular mGluR4 activity, by any suitable known methodology known in the art. For example, Chinese Hamster Ovary (CHO) cells transfected with human mGluR4 or HEK cells co-transfected with rat mGluR4 and the G-protein regulated Inwardly Rectifying Potassium channel (GIRK) were plated in clear bottom assay plates for assay in a Hamamatsu FDSS Fluorometric Plate Reader. The cells were loaded with either a Ca2+-sensitive fluorescent dye or the thallium responsive dye and the plates were washed and placed into a suitable kinetic plate reader. For human mGluR4 assays, a fluorescence baseline was established for 3-5 seconds, the disclosed compounds were then added to the cells, and the response in cells was measured. Approximately two and a half minutes later, a concentration of mGluR4 orthosteric agonist (e.g. glutamate or L-AP4) eliciting approximately 20% (EC20) of the maximal agonist response was added to the cells, and the response was measured. Two minutes later, a concentration of mGluR4 agonist (e.g. glutamate or L-AP4) eliciting 80% (EC80) of the maximal agonist response was added to the cells, and the response was measured. For rat mGluR4/GIRK experiments, a baseline was established for approximately five seconds, disclosed compounds were added, and either an EC20 or EC80 concentration of agonist was added approximately two and one half minutes later.
The above described assay operated in two modes. In the first mode, a range of concentrations of the disclosed compounds are added to cells, followed by a single fixed concentration of agonist. If the compound acts as a potentiator, an EC50 value for potentiation and a maximum extent of potentiation by the compound at this concentration of agonist is determined by non-linear curve fitting. If the compound acts as a noncompetitive antagonist, an IC50 value is determined by non-linear curve fitting. In the second mode, several fixed concentrations of the disclosed compounds are added to various wells on a plate, followed by a range in concentrations of agonist for each concentration of disclosed compound. The EC50 values for the agonist at each concentration of compound are determined by non-linear curve fitting. A decrease in the EC50 value of the agonist with increasing concentrations of the sample compound (a leftward shift of the agonist concentration-response curve) is an indication of the degree of mGluR4 potentiation at a given concentration of the sample compound. A decrease in the maximal response of the agonist with increasing concentrations of the sample compounds, with or without a rightward shift in agonist potency, is an indication of the degree of noncompetitive antagonism at mGluR4. The second mode also indicates whether the sample compounds also affect the maximum response to mGluR4 to agonists.

mGluR5 = biological target: T1, mGluR5 (Rattus norvegicus, UniProt P31424); experiment: mGluR5 negative allosteric modulation, decrease in response to non-maximal glutamate in HEK cells; type: cell-based; conditions: Table 3; read-out: mGlu5 IC50
T1 construct: expressed in transfected cells; host or cells: human embryonic kidney (HEK) cells
Source text: Embodiments of the present invention are also mGluR5 negative allosteric modulators. Accordingly, in one aspect, the invention relates to compounds that are also useful as negative allosteric modulators of the metabotropic glutamate receptor subtype 5 (mGluR5). Negative allosteric modulators are non-competitive antagonists and can include a range of maximal antagonist activity from partial antagonists to inverse agonists. In one aspect, the present invention relates to compounds that allosterically modulate mGluR5 receptor activity, affecting the sensitivity of mGluR5 receptors to agonists without acting as orthosteric agonists themselves. […] The compounds of the invention can be useful in the treatment neurological and psychiatric disorders associated with glutamate dysfunction and other diseases in which metabotropic glutamate receptors are involved, as further described herein. […] In further aspect, the human embryonic kidney cells are transfected with human mGluR5. In yet a further aspect, human embryonic kidney cells are transfected with mGluR5 of a mammal.
In further aspect, the human embryonic kidney cells are transfected with human mGluR5. In yet a further aspect, human embryonic kidney cells are transfected with mGluR5 of a mammal.

T1 sequence (P31424 21-1203): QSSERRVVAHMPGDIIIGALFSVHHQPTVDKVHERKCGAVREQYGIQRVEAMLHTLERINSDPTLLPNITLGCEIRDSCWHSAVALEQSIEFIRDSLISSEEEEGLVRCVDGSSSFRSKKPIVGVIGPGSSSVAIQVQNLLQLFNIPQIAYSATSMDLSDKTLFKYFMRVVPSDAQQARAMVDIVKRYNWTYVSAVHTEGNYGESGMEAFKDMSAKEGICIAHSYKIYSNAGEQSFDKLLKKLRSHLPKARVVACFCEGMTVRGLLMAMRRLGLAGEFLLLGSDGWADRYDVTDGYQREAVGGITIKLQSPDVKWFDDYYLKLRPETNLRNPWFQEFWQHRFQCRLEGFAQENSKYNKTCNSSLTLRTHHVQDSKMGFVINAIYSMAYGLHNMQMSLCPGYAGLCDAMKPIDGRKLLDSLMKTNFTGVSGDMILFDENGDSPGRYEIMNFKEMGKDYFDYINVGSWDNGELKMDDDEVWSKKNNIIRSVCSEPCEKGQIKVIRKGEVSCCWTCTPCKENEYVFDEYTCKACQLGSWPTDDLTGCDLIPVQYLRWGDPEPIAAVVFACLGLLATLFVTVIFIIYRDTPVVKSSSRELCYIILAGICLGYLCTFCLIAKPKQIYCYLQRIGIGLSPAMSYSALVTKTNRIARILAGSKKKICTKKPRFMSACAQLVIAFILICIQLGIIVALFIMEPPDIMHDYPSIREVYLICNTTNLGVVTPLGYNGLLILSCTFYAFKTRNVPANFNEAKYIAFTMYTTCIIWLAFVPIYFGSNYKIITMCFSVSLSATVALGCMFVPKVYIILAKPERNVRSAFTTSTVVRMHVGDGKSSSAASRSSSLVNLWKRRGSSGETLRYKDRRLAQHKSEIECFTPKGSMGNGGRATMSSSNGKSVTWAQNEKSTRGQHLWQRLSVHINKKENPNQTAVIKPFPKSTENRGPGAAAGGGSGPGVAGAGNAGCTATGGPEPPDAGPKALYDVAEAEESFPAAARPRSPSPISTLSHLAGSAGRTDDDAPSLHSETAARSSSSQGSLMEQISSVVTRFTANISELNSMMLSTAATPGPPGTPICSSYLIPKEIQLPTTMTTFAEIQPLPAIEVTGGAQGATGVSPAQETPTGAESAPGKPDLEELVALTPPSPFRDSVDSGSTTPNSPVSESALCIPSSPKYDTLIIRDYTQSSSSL

| Compound | EC50 (mGluR4) | IC50 (mGluR5) |
| --- | --- | --- |
| Clc1cc(Nc2n[nH]c3cccnc23)ccc1Nc1cccnc1 [Example 127, 2-chloro-N4-(1H-pyrazolo[4,3-b]pyridin-3-yl)-N1-(pyridin-3-yl)benzene-1,4-diamine] | 53.1 nM | 22 nM |
| Cc1ccnc(Nc2ccc(Nc3n[nH]c4cccnc34)cc2Cl)c1 [Example 129, 2-chloro-N1-(4-methylpyridin-2-yl)-N4-(1H-pyrazolo[4,3-b]pyridin-3-yl)benzene-1,4-diamine] | 19.4 nM | 970 nM |
